According to PubChem BioAssay AID1963839 (Molecular Pharmacology Branch, DTP, NCI, 2024):
“And” between values parts separate entries of the source, which are not always exact repeats. Equal values may be shown once.

Tested on: 817829-284-R-J1-PDC complex spheroid viability
Assay: Anticancer human tumor 817829-284-R-J1-PDC patient-derived colon adenocarcinoma cell line growth inhibition [POLQ]
Details: for viability, T/C: stronger effect = lower value
Method: Multicellular complex tumor spheroid response to Polymerase (POL) inhibitors (novobiocin, ART-558, RP6685) in combination with a variety of drugs and investigational agents in selected tumor cell lines
The POL inhibitors (novobiocin, ART-558, and RP6685) were evaluated both individually and in combination with standard of care and investigational anticancer small molecules within a complex spheroid model of solid tumors. . Complex spheroids include a stromal component modeled by human endothelial cells (HUVEC) and fibroblasts modeled by human mesenchymal stem cells (MSCs). The concentration ranges selected for each drug and investigational agent were based upon clinically achievable concentrations if the clinical Cmax of the agent was known.
Compounds. The drugs and investigational agents: novobiocin (NSC847541), ART-558 (NSC835418), RP-6685 (NSC848927), peposertib (NSC802822), ceralasertib (NSC780249), elimusertib (NSC800525), camonsertib (NSC841442), AZD-1390 (NSC803789), olaparib (NSC753686), talazoparib (NSC767125), rucaparib (NSC756644), sotorasib (NSC818433), MRTX-1133 (NSC836407), SN-38 (NSC673596), topotecan (NSC609699), epotoside (NSC141540), doxorubicin (NSC123127), gemcitabine (NSC613327), 5-fluorouracil (NSC19893), paclitaxel (NSC125973), vemurafenib (NSC761431), MSA-2 (NSC828583), SN-011 (NSC837082), adavosertib (NSC754352), prexasertib (NSC758257), carboplatin (NSC241240) and oxaliplatin (NSC266046), were obtained from the National Cancer Institute (NCI) Developmental Therapeutics Program Chemical Repository (21). The FDA-approved anticancer drug set is available from the Developmental Therapeutics Program at https://dtp.cancer.gov/organization/dscb/obtaining/. […] The stock solutions were prepared in dimethyl sulfoxide (DMSO, Sigma-Aldrich, St. Louis, MO, cat. D2650), except for the platinum compounds which were prepared in saline (Quality Biological, Gaithersburg, MD, cat. 114-055-101), at 800-fold the tested concentration and stored at -70 degrees C prior to their use. All drugs and investigational agents were tested over a range starting from a high concentration at or near the clinical Cmax and decreasing in half-log increments. If the clinical Cmax for an agent had not been determined, the highest concentration tested was 10 microM, except for SN-38, which was tested at a high concentration of 1 microM.
Cell Culture. All cells were maintained in an incubator at 37 degrees C and 5% CO2 with 95% humidity. The PDC lines were cultured according to standard operating procedures established by the NCI PDMR (https://pdmr.cancer.gov). Table 3 of the manuscript, lists the cell lines along with the number of the three cell types plated to form the mct-spheroids and media for tumor cell growth. After thawing, all PDC lines, except 997537-175-T-J1-PDC and 415267-285-R-J2-PDC, were cultured in Matrigel-coated flasks prepared with a working solution of 1X Ham's F-12 nutrient mix, without supplementation (Thermo Fisher Scientific, cat. 11765054), 100 U/mL penicillin-streptomycin (Thermo Fisher Scientific, cat. 15140122), and 2.5% Matrigel (Corning Inc., Corning, NY, cat. 354248) for the first three passages. The two PDC lines 997537-175-T-J1-PDC and 415267-285-R-J2-PDC were cultured on uncoated flasks. The 857933-349-R-J2-PDC line was cultured in 6C/Colon 1B media containing advanced DMEM/F-12 (Thermo Fisher Scientific, cat. 12634028), 10 mM HEPES (Thermo Fisher Scientific, cat. 15630080), 1X GlutaMAX supplement (Thermo Fisher Scientific, cat. 35050061), 0.1 mg/mL primocin (InvivoGen, San Diego, CA, cat. ant-pm-2), 10% defined fetal bovine serum, heat inactivated (HyClone Laboratories Inc., Logan, UT, cat. SH30070.03HI), 50% L-WRN conditioned media (ATCC, cat. CRL-3276), 1.25 mM N-Acetyl-L-cysteine (Sigma-Aldrich, cat. A9165), 10 mM nicotinamide (Sigma-Aldrich, cat. N0636), 1X B-27 supplement (Thermo Fisher Scientific, cat. 17504044), 1X N-2 supplement (Thermo Fisher Scientific, cat. […]

[1] = curve of first compound, second compound 0.0316 µM
[2] = curve of first compound, second compound 0.1 µM
[3] = curve of first compound, second compound 0.316 µM
[4] = curve of first compound, second compound 1 µM
[5] = curve of first compound, second compound 3.16 µM
[6] = curve of first compound, second compound 10 µM
[7] = second compound 0.0316 µM, first compound 0.0316 µM
[8] = second compound 0.0316 µM, first compound 0.1 µM
[9] = second compound 0.0316 µM, first compound 0.316 µM
[10] = second compound 0.0316 µM, first compound 1 µM
[11] = second compound 0.0316 µM, first compound 3.16 µM
[12] = second compound 0.0316 µM, first compound 10 µM
[13] = second compound 0.1 µM, first compound 0.0316 µM
[14] = second compound 0.1 µM, first compound 0.1 µM
[15] = second compound 0.1 µM, first compound 0.316 µM
[16] = second compound 0.1 µM, first compound 1 µM
[17] = second compound 0.1 µM, first compound 3.16 µM
[18] = second compound 0.1 µM, first compound 10 µM
[19] = second compound 0.316 µM, first compound 0.0316 µM
[20] = second compound 0.316 µM, first compound 0.1 µM
[21] = second compound 0.316 µM, first compound 0.316 µM
[22] = second compound 0.316 µM, first compound 1 µM
[23] = second compound 0.316 µM, first compound 3.16 µM
[24] = second compound 0.316 µM, first compound 10 µM
[25] = second compound 1 µM, first compound 0.0316 µM
[26] = second compound 1 µM, first compound 0.1 µM
[27] = second compound 1 µM, first compound 0.316 µM
[28] = second compound 1 µM, first compound 1 µM
[29] = second compound 1 µM, first compound 3.16 µM
[30] = second compound 1 µM, first compound 10 µM
[31] = second compound 3.16 µM, first compound 0.0316 µM
[32] = second compound 3.16 µM, first compound 0.1 µM
[33] = second compound 3.16 µM, first compound 0.316 µM
[34] = second compound 3.16 µM, first compound 1 µM
[35] = second compound 3.16 µM, first compound 3.16 µM
[36] = second compound 3.16 µM, first compound 10 µM
[37] = second compound 10 µM, first compound 0.0316 µM
[38] = second compound 10 µM, first compound 0.1 µM
[39] = second compound 10 µM, first compound 0.316 µM
[40] = second compound 10 µM, first compound 1 µM
[41] = second compound 10 µM, first compound 3.16 µM
[42] = second compound 10 µM, first compound 10 µM
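Further: spheroids exposed to compounds for 7 days.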
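Wherever viability, T/C is given: 100% = DMSO vehicle-treated spheroids.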

CC1COCCN1c1cc(C2(O)CC3CCC(C2)O3)c2cnn(-c3ccn[nH]3)c2n1 (stereo unspecified) + COC1C(OC(N)=O)C(O)C(Oc2ccc3c(O)c(NC(=O)c4ccc(O)c(CC=C(C)C)c4)c(=O)oc3c2C)OC1(C)C
IC50 [1]: < 31.6 nM | IC50 [2]: < 31.6 nM | IC50 [3]: < 31.6 nM | IC50 [4]: < 31.6 nM | IC50 [5]: < 31.6 nM | IC50 [6]: < 31.6 nM | viability, T/C [7]: 18.5% | viability, T/C [8]: 10.7% | viability, T/C [9]: 3.93% | viability, T/C [10]: 3.7% | viability, T/C [11]: 3.65% | viability, T/C [12]: 2.96% | viability, T/C [13]: 29.2% | viability, T/C [14]: 8.78% | viability, T/C [15]: 4.49% | viability, T/C [16]: 2.72% | viability, T/C [17]: 3.01% | viability, T/C [18]: 1.82% | viability, T/C [19]: 25.9% | viability, T/C [20]: 8.28% | viability, T/C [21]: 5.16% | viability, T/C [22]: 3.2% | viability, T/C [23]: 2.69% | viability, T/C [24]: 2.57% | viability, T/C [25]: 24.7% | viability, T/C [26]: 9.42% | viability, T/C [27]: 4.54% | viability, T/C [28]: 3.29% | viability, T/C [29]: 3.01% | viability, T/C [30]: 1.8% | viability, T/C [31]: 27.9% | viability, T/C [32]: 10.5% | viability, T/C [33]: 4.65% | viability, T/C [34]: 3.82% | viability, T/C [35]: 2.76% | viability, T/C [36]: 2.53% | viability, T/C [37]: 21.5% | viability, T/C [38]: 9.85% | viability, T/C [39]: 5.03% | viability, T/C [40]: 4.12% | viability, T/C [41]: 2.91% | viability, T/C [42]: 2.64%

C=CCn1c(=O)c2cnc(Nc3ccc(N4CCN(C)CC4)cc3)nc2n1-c1cccc(C(C)(C)O)n1
viability, T/C (compound 0.00316 µM): 115% and 101% and 105% | viability, T/C (compound 0.01 µM): 93.7% and 84% and 89.8% | viability, T/C (compound 0.0316 µM): 71.1% and 89.5% and 98.8% | viability, T/C (compound 0.1 µM): 77.6% and 72.5% and 64.8% | viability, T/C (compound 0.316 µM): 36.1% and 33.8% and 40.5% | viability, T/C (compound 1 µM): 5.95% and 6.09% and 5.44% | IC50 (curve of compound): 188 nM and 195 nM and 208 nM

Nc1ccc(C#CCN(C(=O)Cc2ncc(C(F)(F)F)cc2C(F)(F)F)c2ccc(F)cc2)nn1
viability, T/C (compound 3.16 µM): 97.9% [middle of 13 runs] | viability, T/C (compound 10 µM): 99.7% [middle of 13 runs] | IC50 (compound alone, run of 12/05/2023): > 10000 nM

CCc1cc2c(N3CCc4c(cc(Cn5ccnc5)cc4-c4cn(C)nc4C(F)(F)F)C3=O)cc(C)nc2c(OC)n1
viability, T/C (compound 0.0316 µM): 88.4% and 75.3% and 76.3% | viability, T/C (compound 0.1 µM): 85.8% and 83.5% and 79.4% | viability, T/C (compound 0.316 µM): 75.3% and 63.8% and 69.3% | viability, T/C (compound 1 µM): 80.6% and 56.1% and 65.8% | viability, T/C (compound 3.16 µM): 46.4% and 44.7% and 47.9% | viability, T/C (compound 10 µM): 33.1% and 29.7% and 30.8% | IC50 (curve of compound): 2800 nM and 1740 nM and 2830 nM

COc1cc2cc(C(=O)CCC(=O)O)sc2cc1OC + Nc1ccc(C#CCN(C(=O)Cc2ncc(C(F)(F)F)cc2C(F)(F)F)c2ccc(F)cc2)nn1
IC50 [1]: > 10000 nM | IC50 [2]: > 10000 nM | IC50 [3]: > 10000 nM | IC50 [4]: > 10000 nM | IC50 [5]: > 10000 nM | IC50 [6]: > 10000 nM | viability, T/C [7]: 91.1% | viability, T/C [8]: 98.4% | viability, T/C [9]: 90.1% | viability, T/C [10]: 110% | viability, T/C [11]: 136% | viability, T/C [12]: 99.3% | viability, T/C [13]: 99.4% | viability, T/C [14]: 97.4% | viability, T/C [15]: 101% | viability, T/C [16]: 86.8% | viability, T/C [17]: 105% | viability, T/C [18]: 105% | viability, T/C [19]: 93.1% | viability, T/C [20]: 101% | viability, T/C [21]: 114% | viability, T/C [22]: 110% | viability, T/C [23]: 108% | viability, T/C [24]: 110% | viability, T/C [25]: 96.1% | viability, T/C [26]: 97% | viability, T/C [27]: 104% | viability, T/C [28]: 95.9% | viability, T/C [29]: 103% | viability, T/C [30]: 112% | viability, T/C [31]: 102% | viability, T/C [32]: 107% | viability, T/C [33]: 99.7% | viability, T/C [34]: 112% | viability, T/C [35]: 117% | viability, T/C [36]: 108% | viability, T/C [37]: 99.8% | viability, T/C [38]: 109% | viability, T/C [39]: 98.1% | viability, T/C [40]: 95.3% | viability, T/C [41]: 93% | viability, T/C [42]: 91.7%
